# According to patent US20170348337A1, “MULTIFUNCTIONAL MEMBRANE-ACTIVE AMINOGLYCOSIDE-PEPTIDE CONJUGATES” (priority 2014, published 2017):
# “Also recorded” adds a separate entry of the source. Like-named read-outs stand apart in the source and are kept apart here.
# Experiments:
# P. aeruginosa = test: antimicrobial activity (MIC) of P-L-A conjugates; format: cell-based
# [1] = test system: P. acnes laboratory strain ATCC 6919; test: P. acnes CFU assay, laboratory strain; format: cell-based, Propionibacterium acnes
# [2] = test system: P. acnes in comedone extracts; test: microcomedone assay (human comedone extracts); format: cell-based, Propionibacterium acnes; conditions: similar drug concentrations (FIG. 11C)
# E. coli ML35 = E. coli ML35 cell permeabilization assay (ONPG→ONP conversion); format: cell-based; conditions: 90 min, 37° C.
# Description: E. coli ML35 [lacZ-(Con) ΔlacY] cannot take up the lactose mimic ONPG unless cell membrane integrity is compromised. Upon membrane permeabilization ONPG can diffuse into the bacterial cell cytoplasm where it is hydrolyzed by β-galactosidase into galactose and ONP. Since ONP absorbs at 400 nm, the permeabilization kinetics of membrane-disrupting agents can be monitored by OD400 absorbance measurement. Methodology here was very similar to previous studies. Log-phase E. coli cells were grown as described above, washed and resuspended in 10 mM Tris supplemented with 0.01 volume (1% vol/vol) TSB at pH 7.4 (Tris-TSB). In triplicate, bacteria (5×10^6 cells/well) were exposed to various concentrations of antibiotic (Pentobra, tobramycin, Pen peptide) in the presence of 2.5 mM ONPG for 90 min at 37° C. The kinetics of ONPG hydrolysis were measured by determining the absorbance at 400 nm using a plate reader spectrophotometer.
# To characterize the membrane activity of Pentobra on bacteria, its permeabilization kinetics were monitored on live cells by conducting an enzymatic assay for the conversion of ortho-nitrophenyl β-D-galactopyranoside (ONPG) to ortho-nitrophenol (ONP) on the E. coli strain ML35. E. coli ML35 [lacZ-(Con) ΔlacY] constitutively expresses β-galactosidase (β-gal) but lacks the lactose permease necessary for uptake of the lactose analogue ONPG. […]
# [3] = test system: MCP-1, MDC, IP-10 and IL-12p40 in human monocytes; test: chemokine/cytokine gene expression in P. acnes-stimulated monocytes (real-time PCR); format: cell-based; conditions: 24 hrs co-treatment
# Description: Peripheral blood mononuclear cells (PBMCs) were isolated from whole blood of normal healthy donors as approved by the Institutional Review Board at UCLA using Ficoll-Paque gradients (GE Healthcare, Piscataway, N.J.) and plated onto six-well tissue culture plates (20×10^6-30×10^6 per well) for 2 hours in RPMI 1640 medium (Invitrogen Life Technologies, Carlsbad, Calif.) supplemented with 1% fetal calf serum (Omega Scientific, Tarzana, Calif.). Nonadherent cells were removed by rigorously washing three times with RPMI. Adherent monocytes were stimulated (co-treated) with media or P. acnes in the presence of tobramycin or Pentobra in 10% fetal calf serum. P. acnes was used at an MOI of 0.5 and cells were cultured for 24 hours at 37° C.
# Monocytes were stimulated with media or P. acnes in the presence of tobramycin or Pentobra. Total RNA was isolated using Trizol reagent (Invitrogen, Carlsbad, Calif.) following manufacturer's protocol and treated with RNase-free DNase. RNA concentration and quality were determined by spectrophotometry. RNA samples were reverse-transcribed to cDNA using iScript cDNA synthesis kit (Bio-Rad, Hercules, Calif.). Reactions were done at 25° C. for 5 minutes, 42° C. for 30 minutes and 85° C. for 5 minutes. Real-time PCR was applied using iQ SYBR Green supermix (Bio-Rad). Forty cycles were carried out at 95° C. for 5 minutes, then 95° C. for 10 seconds, 55° C. for 20 seconds, 72° C. for 20 seconds. GAPDH was used as a control. Gene expression level was quantified by the comparative method 2-ΔΔCT.
# Monocytes were cultured and evaluated for cytokine and chemokine expression by ELISA and real time PCR after 24 hrs.
# E. coli = test: antimicrobial activity (MIC) of P-L-A conjugates; format: cell-based
# [4] = aminoglycosides; cited from earlier work
# [5] = test system: Vancomycin-Sensitive Enterococci (VSE); test: organism not typed; format: cell-based; conditions: read-out: MIC
# Text: Pentobra was screened against a broad panel of microbial pathogens, including strains of E. coli, MRSA, Klebsiella (Kleb), Acinetobacter (AcB), Vancomycin-Sensitive Enterococci (VSE) and Vancomycin-Resistant Enterococci (VRE), and specifically including E. faecalis samples. […] The experimenter reported the minimum inhibitory concentration (MIC) in mass units per unit volume (μg/mL) for each compound, and MIC data were converted into molar concentrations (μM) due to the large difference between the molecular weight of tobramycin (467.5 g/mol) and Pentobra (2277 g/mol).
# [6] = test system: S. aureus S113 persister cells; test: persister cell plate killing assay; format: cell-based, Staphylococcus aureus; conditions: 1.5 h
# Description: Procedure for preparing S. aureus SA113 and E. coli Dh5α persister cells were based on previous protocols. Cells from freshly streaked agar plates were inoculated in 1 mL TSB and incubated 16 h at 37° C. in a shaker incubator to obtain stationary phase cultures. Non-persister cells were eliminated by adding ampicillin to a final concentration of 100 μg/mL, followed by 3 h incubation at 37° C.
# S. aureus cells were diluted 10× into 10 mM Pipes at pH 7.4 buffer for a bacteria stock solution of roughly 10^9 CFU/mL. 20 μL S. aureus suspension was introduced into 180 μL Pipes buffer containing various concentrations of antibiotic (Pentobra, tobramycin) in 96 well plates for a total of ˜10^8 CFU/well. The plates were sealed with parafilm, loaded onto microplate shakers and placed in 37° C. incubator for 1.5 h. After incubation, 10-fold serial dilutions were made in Pipes buffer. Half of each dilution (100 μL) was spotted onto LB agar plates and incubated overnight at 37° C. to yield visible colonies. The S. aureus persister assays were performed in triplicate. The data shown are averages from two independent trials and were representative of the three assays.
# The bactericidal effects of Pentobra against persistent bacteria were investigated with plate killing assays. […]
smiles,measurement,setting,value
NC[C@H]1O[C@H](O[C@H]2[C@H](O)[C@@H](O[C@H]3O[C@H](CO)[C@@H](O)[C@H](N)[C@H]3O)[C@H](N)C[C@@H]2N)[C@H](N)C[C@@H]1O [tobramycin],MIC,"P. aeruginosa; Pseudomonas aeruginosa, read-out: MIC (μM) P. aeruginosa (stationary)",6.25 µM
same,MIC (μM) P. aeruginosa (mid-log),P. aeruginosa; mid-log,0.78-3.12 μM
same,killing activity,[1],not strongly bactericidal
same,reduction in CFU,"[1]; 52 μM, 3 h",less than ten
same,reduction in CFU,[2],less than ten
same,"inner membrane permeabilization (400 nm absorbance, ONPG→ONP)",E. coli ML35,no membrane permeabilization occurred; also recorded: comparable to background
same,inhibition of IL-12p40 gene expression,[3],little to no inhibition
same,"inhibition of MCP-1 expression, comparison of the antibiotics",[3],more effective
same,P. acnes-induced IP-10 expression,[3]; p<0.001,completely abrogated
same,MIC (μM) E. coli (mid-log),E. coli,6.25 μM
same,octanol→water partition coefficient Log P,[4],−3.41
same,MIC,"[5]; isolate S4895552, VSE, LZD-R",> 274 µM
same,MIC,"[5]; isolate W7171143,VSE",68 µM
same,MIC,"[5]; isolate W7214342,VSE",> 274 µM
same,MIC,"[5]; isolate X4540299, VSE",34 µM
same,reduction in CFU,[6]; range of tested concentrations,less than one
same,killing activity against persister cells,[6]; varying concentrations,little susceptibility
